Results published in patent US11225505B2, “Antimicrobial polymyxin derivative compounds” (MONASH UNIVERSITY, priority 2015, dated 2022).
In brackets after ≈: the same amount, converted by molar mass. Where a SMILES comes first, the peptide text is derived from it. Bridges are numbered along the chain shown (N, C = ends). [ ]: non-standard residue; d: D form. The star is where a group is joined. X46 = O=C(c1cc(Br)nc(Br)c1)*; X36 = O=C(c1ncc(Br)cc1Br)*; X13 = O=C(c1ccnc(Br)c1)*; X25 = O=C(c1ccnc(Cl)c1)*; X29 = O=C(c1cc(Cl)ccn1)*; X33 = O=C(c1cncc(Br)c1)*; Dab = NCC[C@H](N)C(=O)O; X40 = Cc1cncc(C(=O)*)c1; Abu = CC[C@H](N)C(=O)O; Dap = NC[C@H](N)C(=O)O

Experiments:
Format in all cases: cell-based
[1] = system: Acinetobacter baumannii FADDI-AB030; experiment: microbe, parasite or virus in culture; details: FADDI-AB030
Summary of the method: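 Lipopeptide TFA salts tested against the multidrug-resistant clinical isolate by CLSI (M100-S24) broth microdilution in cation-adjusted Mueller-Hinton broth, with polymyxin B sulphate as control; MIC read.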

[2] = system: Enterobacter cloacae FADDI-EC003; details: FADDI-EC003
Summary of the method: (§1)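 Gram-negative bacteria susceptible to polymyxin were exposed to lipopeptide trifluoroacetates in CAMHB, and growth inhibition was read as the MIC by the CLSI microdilution protocol.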

[3] = system: Pseudomonas aeruginosa FADDI-PA022; details: FADDI-PA022
Summary of the method: as §1

[4] = system: Acinetobacter baumannii ATCC 17978; details: ATCC 17978
Summary of the method: as §1

[5] = system: Pseudomonas aeruginosa ATCC 27853; details: ATCC 27853
Summary of the method: as §1

[6] = system: Pseudomonas aeruginosa FADDI-PA038; details: FADDI-PA038
Summary of the method: as §1

[7] = system: Klebsiella pneumoniae FADDI-KP032; details: FADDI-KP032
Summary of the method: as §1

[8] = system: Acinetobacter baumannii FADDI-AB034; details: FADDI-AB034
Summary of the method: as §1

[9] = system: Pseudomonas aeruginosa FADDI-PA01; details: FADDI-
Summary of the method: as §1

[10] = system: Enterobacter cloacae FADDI-EC006; details: FADDI-EC006
Summary of the method: as §1

[11] = system: Enterobacter cloacae FADDI-EC001; details: FADDI-EC001
Summary of the method: (§2)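 Following CLSI procedure M100-S24, minimum inhibitory concentrations of trifluoroacetate lipopeptides are measured in cation-adjusted Mueller-Hinton medium by broth microdilution, alongside a polymyxin B sulphate control.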

[12] = system: Klebsiella pneumoniae Kp BM1; details: Kp BM1
Summary of the method: as §2

[13] = system: Klebsiella pneumoniae FADDI-KP022; details: FADDI-KP022
Summary of the method: as §1

`CC[C@@H]1NC(=O)[C@@H](CC(C)C)NC(=O)[C@H](CCN)NC(=O)[C@@H](NC(=O)[C@H](CN)NC(=O)[C@@H](NC(=O)[C@H](CCN)NC(=O)c2cncc(Br)c2)[C@@H](C)O)CCNC(=O)[C@H]([C@@H](C)O)NC(=O)[C@H](CCN)NC(=O)[C@H](CCN)NC1=O` [Compound 23] (X33-[Dab]T[Dap][Dab][Dab][dL][Abu][Dab][Dab]T; lactam 4-C) showed a Minimum inhibitory concentration [1] of 0.5 mg/L (≈ 0.427 µM), a Minimum inhibitory concentration [2] of 0.5 mg/L (≈ 0.427 µM) and a Minimum inhibitory concentration [3] of 0.25 mg/L (≈ 0.213 µM). The Minimum inhibitory concentration [4] was 2 mg/L (≈ 1.71 µM), the Minimum inhibitory concentration [5] was 0.25 mg/L (≈ 0.213 µM) and the Minimum inhibitory concentration [6] was 0.5 mg/L (≈ 0.427 µM). For the same compound, the Minimum inhibitory concentration [7] was 0.5 mg/L (≈ 0.427 µM), the Minimum inhibitory concentration [8] was 0.5 mg/L (≈ 0.427 µM) and the Minimum inhibitory concentration [9] was 0.5 mg/L (≈ 0.427 µM). The Minimum inhibitory concentration [10] was 4 mg/L (≈ 3.42 µM), the Minimum inhibitory concentration [11] was 0.5 mg/L (≈ 0.427 µM) and the Minimum inhibitory concentration [12] was 0.25 mg/L (≈ 0.213 µM). The Minimum inhibitory concentration [13] was less than 0.125 mg/L.
Compound `CC[C@@H]1NC(=O)[C@@H](CC(C)C)NC(=O)[C@H](CCN)NC(=O)[C@@H](NC(=O)[C@H](CN)NC(=O)[C@@H](NC(=O)[C@H](CCN)NC(=O)c2ccnc(Cl)c2)[C@@H](C)O)CCNC(=O)[C@H]([C@@H](C)O)NC(=O)[C@H](CCN)NC(=O)[C@H](CCN)NC1=O` [Compound 24] (X25-[Dab]T[Dap][Dab][Dab][dL][Abu][Dab][Dab]T; lactam 4-C) has a Minimum inhibitory concentration [1] of 1 mg/L (≈ 0.888 µM), a Minimum inhibitory concentration [2] of 0.25 mg/L (≈ 0.222 µM) and a Minimum inhibitory concentration [3] of 0.25 mg/L (≈ 0.222 µM). The Minimum inhibitory concentration [4] was 2 mg/L (≈ 1.78 µM), the Minimum inhibitory concentration [5] was 0.25 mg/L (≈ 0.222 µM) and the Minimum inhibitory concentration [6] was 1 mg/L (≈ 0.888 µM). It also gave a Minimum inhibitory concentration [7] of 0.5 mg/L (≈ 0.444 µM), a Minimum inhibitory concentration [8] of 1 mg/L (≈ 0.888 µM) and a Minimum inhibitory concentration [9] of 0.25 mg/L (≈ 0.222 µM). For the same compound, the Minimum inhibitory concentration [10] was 4 mg/L (≈ 3.55 µM), the Minimum inhibitory concentration [11] was 0.25 mg/L (≈ 0.222 µM) and the Minimum inhibitory concentration [12] was 0.25 mg/L (≈ 0.222 µM). It also gave a Minimum inhibitory concentration [13] of less than 0.125 mg/L.
Compound `CC[C@@H]1NC(=O)[C@@H](CC(C)C)NC(=O)[C@H](CCN)NC(=O)[C@@H](NC(=O)[C@H](CN)NC(=O)[C@@H](NC(=O)[C@H](CCN)NC(=O)c2ccnc(Br)c2)[C@@H](C)O)CCNC(=O)[C@H]([C@@H](C)O)NC(=O)[C@H](CCN)NC(=O)[C@H](CCN)NC1=O` [Compound 25] (X13-[Dab]T[Dap][Dab][Dab][dL][Abu][Dab][Dab]T; lactam 4-C) has a Minimum inhibitory concentration [1] of 1 mg/L (≈ 0.854 µM), a Minimum inhibitory concentration [2] of less than 0.125 mg/L and a Minimum inhibitory concentration [3] of 0.25 mg/L (≈ 0.213 µM). It also gave a Minimum inhibitory concentration [4] of 1 mg/L (≈ 0.854 µM), a Minimum inhibitory concentration [5] of 0.25 mg/L (≈ 0.213 µM) and a Minimum inhibitory concentration [6] of 1 mg/L (≈ 0.854 µM). For the same compound, the Minimum inhibitory concentration [7] was 0.25 mg/L (≈ 0.213 µM), the Minimum inhibitory concentration [8] was 1 mg/L (≈ 0.854 µM) and the Minimum inhibitory concentration [9] was 0.25 mg/L (≈ 0.213 µM). For the same compound, the Minimum inhibitory concentration [10] was 2 mg/L (≈ 1.71 µM), the Minimum inhibitory concentration [11] was 0.5 mg/L (≈ 0.427 µM) and the Minimum inhibitory concentration [12] was 0.25 mg/L (≈ 0.213 µM). For the same compound, the Minimum inhibitory concentration [13] was less than 0.125 mg/L.
`CC[C@@H]1NC(=O)[C@@H](CC(C)C)NC(=O)[C@H](CCN)NC(=O)[C@@H](NC(=O)[C@H](CN)NC(=O)[C@@H](NC(=O)[C@H](CCN)NC(=O)c2cc(Cl)ccn2)[C@@H](C)O)CCNC(=O)[C@H]([C@@H](C)O)NC(=O)[C@H](CCN)NC(=O)[C@H](CCN)NC1=O` [Compound 26] (X29-[Dab]T[Dap][Dab][Dab][dL][Abu][Dab][Dab]T; lactam 4-C) was tested, and the Minimum inhibitory concentration [1] was 0.5 mg/L (≈ 0.444 µM), the Minimum inhibitory concentration [2] was less than 0.125 mg/L and the Minimum inhibitory concentration [3] was 0.25 mg/L (≈ 0.222 µM). The Minimum inhibitory concentration [4] was 0.5 mg/L (≈ 0.444 µM), the Minimum inhibitory concentration [5] was 0.25 mg/L (≈ 0.222 µM) and the Minimum inhibitory concentration [6] was 0.5 mg/L (≈ 0.444 µM). The Minimum inhibitory concentration [7] was 0.25 mg/L (≈ 0.222 µM), the Minimum inhibitory concentration [8] was 0.5 mg/L (≈ 0.444 µM) and the Minimum inhibitory concentration [9] was 0.25 mg/L (≈ 0.222 µM). The Minimum inhibitory concentration [10] was 2 mg/L (≈ 1.78 µM), the Minimum inhibitory concentration [11] was 0.25 mg/L (≈ 0.222 µM) and the Minimum inhibitory concentration [12] was 0.25 mg/L (≈ 0.222 µM). The Minimum inhibitory concentration [13] was less than 0.125 mg/L.
With `CC[C@@H]1NC(=O)[C@@H](CC(C)C)NC(=O)[C@H](CCN)NC(=O)[C@@H](NC(=O)[C@H](CN)NC(=O)[C@@H](NC(=O)[C@H](CCN)NC(=O)c2cc(Br)nc(Br)c2)[C@@H](C)O)CCNC(=O)[C@H]([C@@H](C)O)NC(=O)[C@H](CCN)NC(=O)[C@H](CCN)NC1=O` [Compound 28] (X46-[Dab]T[Dap][Dab][Dab][dL][Abu][Dab][Dab]T; lactam 4-C) the Minimum inhibitory concentration [1] was 0.25 mg/L (≈ 0.2 µM), the Minimum inhibitory concentration [2] was 0.25 mg/L (≈ 0.2 µM) and the Minimum inhibitory concentration [3] was 0.25 mg/L (≈ 0.2 µM). The Minimum inhibitory concentration [4] was 0.25 mg/L (≈ 0.2 µM), the Minimum inhibitory concentration [5] was 0.25 mg/L (≈ 0.2 µM) and the Minimum inhibitory concentration [6] was 1 mg/L (≈ 0.8 µM). The Minimum inhibitory concentration [7] was 0.25 mg/L (≈ 0.2 µM), the Minimum inhibitory concentration [8] was 0.25 mg/L (≈ 0.2 µM) and the Minimum inhibitory concentration [9] was 1 mg/L (≈ 0.8 µM). It also gave a Minimum inhibitory concentration [10] of less than 0.125 mg/L, a Minimum inhibitory concentration [11] of 0.25 mg/L (≈ 0.2 µM) and a Minimum inhibitory concentration [12] of 0.25 mg/L (≈ 0.2 µM). The Minimum inhibitory concentration [13] was less than 0.125 mg/L.
For `CC(C)C[C@H]1NC(=O)[C@H](CCN)NC(=O)[C@@H](NC(=O)[C@H](CN)NC(=O)[C@@H](NC(=O)[C@H](CCN)NC(=O)c2ncc(Br)cc2Br)[C@@H](C)O)CCNC(=O)[C@H]([C@@H](C)O)NC(=O)[C@H](CCN)NC(=O)[C@H](CCN)NC(=O)[C@H]([C@@H](C)O)NC1=O` [Compound 29] (X36-[Dab]T[Dap][Dab][Dab][dL]T[Dab][Dab]T; lactam 4-C), the Minimum inhibitory concentration [1] was 1 mg/L (≈ 0.79 µM), the Minimum inhibitory concentration [2] was 0.25 mg/L (≈ 0.197 µM) and the Minimum inhibitory concentration [3] was 0.25 mg/L (≈ 0.197 µM). The Minimum inhibitory concentration [4] was 2 mg/L (≈ 1.58 µM), the Minimum inhibitory concentration [5] was 1 mg/L (≈ 0.79 µM) and the Minimum inhibitory concentration [6] was 1 mg/L (≈ 0.79 µM). The Minimum inhibitory concentration [7] was 1 mg/L (≈ 0.79 µM), the Minimum inhibitory concentration [8] was 2 mg/L (≈ 1.58 µM) and the Minimum inhibitory concentration [9] was 0.5 mg/L (≈ 0.395 µM). For the same compound, the Minimum inhibitory concentration [10] was less than 0.125 mg/L, the Minimum inhibitory concentration [11] was 0.25 mg/L (≈ 0.197 µM) and the Minimum inhibitory concentration [12] was 0.5 mg/L (≈ 0.395 µM). It also gave a Minimum inhibitory concentration [13] of 0.25 mg/L (≈ 0.197 µM).
For `CC[C@@H]1NC(=O)[C@@H](CC(C)C)NC(=O)[C@H](CCN)NC(=O)[C@@H](NC(=O)[C@H](CN)NC(=O)[C@@H](NC(=O)[C@H](CCN)NC(=O)c2cncc(C)c2)[C@@H](C)O)CCNC(=O)[C@H]([C@@H](C)O)NC(=O)[C@H](CCN)NC(=O)[C@H](CCN)NC1=O` [Compound 30] (X40-[Dab]T[Dap][Dab][Dab][dL][Abu][Dab][Dab]T; lactam 4-C), the Minimum inhibitory concentration [1] was 4 mg/L (≈ 3.62 µM), the Minimum inhibitory concentration [2] was 0.5 mg/L (≈ 0.452 µM) and the Minimum inhibitory concentration [3] was 0.5 mg/L (≈ 0.452 µM). The Minimum inhibitory concentration [4] was 8 mg/L (≈ 7.23 µM), the Minimum inhibitory concentration [5] was 0.5 mg/L (≈ 0.452 µM) and the Minimum inhibitory concentration [6] was 1 mg/L (≈ 0.904 µM). The Minimum inhibitory concentration [7] was 2 mg/L (≈ 1.81 µM), the Minimum inhibitory concentration [8] was 4 mg/L (≈ 3.62 µM) and the Minimum inhibitory concentration [9] was 0.5 mg/L (≈ 0.452 µM). The Minimum inhibitory concentration [10] was 2 mg/L (≈ 1.81 µM), the Minimum inhibitory concentration [11] was 0.5 mg/L (≈ 0.452 µM) and the Minimum inhibitory concentration [12] was 1 mg/L (≈ 0.904 µM). It also gave a Minimum inhibitory concentration [13] of 0.25 mg/L (≈ 0.226 µM).
